Source: patent publication US6541463B1, “Inhibitors of type 5 and type 3 17β-hydroxysteroid dehydrogenase and methods for their use” (Endorecherche, Inc., priority 1998, dated 2003)
Read-outs that look alike come from different tables or passages of the source.

Legend:
[1] = test system: Shionogi mouse mammary carcinoma cells; assay: Androgenic activity: stimulation of proliferation of Shionogi cells; type: cell-based
How it was run: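 Values are the percent stimulation of cell number, measured by Coulter counter, after 10–12 days of exposure to 10^−7 M or 10^−6 M compound. Androgen-sensitive Shionogi cells were seeded at 20 000 cells/well in triplicate in dextran-charcoal-treated FCS medium, refreshed every 3–4 days.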

[2] = test system: Shionogi mouse mammary carcinoma cells; assay: Antiandrogenic activity: inhibition of DHT-induced proliferation of Shionogi cells; type: cell-based; details: for IC50: Mus musculus
Description: The manner in which the inhibition is determined is described in “Other Tests; B-Androgenic/Antiandrogenic Activity”. Lower numbers are desirable. ND means that a determination was not done.
Androgenic/antiandrogenic activity of some preferred compounds has been measured using the Shionogi mouse mammary carcinoma cells.
Minimal essential culture medium (MEM), non-essential amino acids, and fetal calf serum were purchased from Flow Laboratories. In order to remove endogenous steroids, serum was incubated overnight at 4° C. with 1% activated charcoal (Norit A, Fisher) and 0.1% Dextran T-70 (Pharmacia). A 2-h supplementary adsorption was performed at 25° C. in order to further remove protein-bound steroids. Serum was also inactivated by a 20-min incubation at 56° C.
5α-dihydrotestosterone (DHT) was obtained from Steraloids. The antiandrogen hydroxyflutamide (OH-FLU) was kindly supplied by Drs. T. L. Nagabuschan and R. Neri (Schering Corporation, Kenilworth, U.S.A.).
Shionogi male mice bearing androgen-sensitive mammary tumors were obtained from Drs. Keishi Matsumoto, Osaka, Japan, and Yvonne Lefebvre, Ottawa, Canada. For primary culture, tumors were excised and washed in ice-cold sterile 25 mM Hepes buffer (137 mM NaCl; 5 mM KCl; 0.7 mM Na2HPO4; 10 mM glucose, pH 7.2). After mincing with scissors, the tumor minces were digested for 2 h at 37° C. in Hepes buffer containing 3.8 mg/ml collagenase (Clostridium, Boehringer), 1.5 mg/ml hyaluronidase II (Sigma), and 3% bovine serum albumin fraction V (Schwartz-Mann). Dispersed cells were collected by centrifugation (500×g for 10 min), washed twice by suspension in minimal essential medium (MEM) containing 5% dextran-coated charcoal-treated fetal calf serum (DCC-FCS), 1% non-essential amino acids, 10 IU/ml penicillin, 50 μg/ml streptomycin, and 100 nM dihydrotestosterone (DHT) (Steraloids).
Cells were plated in the same medium at a density of 75 000 cells/ml in 75 cm^2 flasks under an atmosphere of 5% carbon dioxide in air at 37° C. The medium was changed weekly. The steroids and antisteroids were dissolved in ethanol and kept in stock solutions chosen to yield final ethanol concentrations less than 0.01% in the culture medium.
Cells were subcultured at near-confidence by gentle digestion in a solution of 0.1% pancreatin (Flow Laboratories) in Hepes buffer containing 3 mM ethylenediaminetetraacetic acid (EDTA) (pH 7.2). Cells were pelleted by centrifugation, resuspended in culture medium, counted in a Coulter counter, and replated as described above. Soft agar cloning was performed as described (Stanley et al., Cell 10: 35-44, 1977) in the presence of 100 nM DHT.
Cells were plated in 24-well plates at a density of 20 000 cells/well. The indicated increasing concentrations of agents were added to triplicate dishes, and cells were grown for 10-12 days with changes of medium every 3-4 days. Cell number was measured by direct counting in a Coulter counter.
ED50 values of action of DHT and glucocorticoids were calculated according to a least-square regression as described (Rodbard, Endocrinology 94: 1427-1431, 1974). Statistical significance was calculated according to a multiple-range test (Kramer, Biometrics 12: 307-310,1956).

[3] = Table 4′, DHT-induced proliferation, E^−6 (10^−6 M)
[4] = Table 4′, DHT-induced proliferation, E^−7
[5] = read-out: Antiandrogenic Activity Shionogi, DHT [IC50]

| SMILES | Androgenic Activity Shionogi, Basal E^−6 ([1]; Table 4′, E^−6) [%] | Androgenic Activity Shionogi, Basal E^−7 ([1]; Table 4′, E^−7) [%] | Antiandrogenic Activity Shionogi, DHT E^−6 [2, 3] [%] | Antiandrogenic Activity Shionogi, DHT E^−7 [2, 4] [%] | further results |
| --- | --- | --- | --- | --- | --- |
| CSCCOc1ccc2c(c1)CCC1C2CCC2(C)C1CCC21CCCC(=O)O1 [CS-242, 3-Methylthioethyloxy-1,3,5(10)-estratrien-17(R)-spiro-2′-(6′-oxo) Tetrahydropyran] | −32 | 0 | −66 | 9 | – |
| COc1cc2c(cc1C)C1CCC3(C)C(CCC34CCC(C)(C)C(=O)O4)C1CC2 (stereo not shown) [EM-1412-CS] | −11 | 0 | −60 | 0 | – |
| CC1(C)CCC2(CCC3C4CCc5cc(OS(C)(=O)=O)ccc5C4CCC32C)OC1=O (stereo not shown) [EM-1365-CS] | −28 | 4 | −53 | −17 | – |
| CCC[C@]1(F)CC2C3C=CC4=CC(=O)CC[C@]4(C)C3CC[C@]2(C)C1=O (stereo partly shown) [EM-1183] | – | – | – | – | Androgenic Activity Shionogi, Basal E^−6 ([1]; E^−6): −17; Androgenic Activity Shionogi, Basal E^−7 ([1]; E^−7): 0; Antiandrogenic Activity Shionogi, DHT E^−6 ([2]; with DHT, E^−6): −51; Antiandrogenic Activity Shionogi, DHT E^−7 ([2]; with DHT, E^−7): 0 |
| CC1(C)CC[C@@]2(CCC3C4CCc5cc(F)ccc5C4CC[C@@]32C)OC1=O (stereo partly shown) [EM-1157-CS] | −12 | 16 | −19 | 0 | – |
| CC(=O)[C@@]1(OC(=O)CCCCF)CCC2C3C=C(C)C4=CC(=O)CC[C@]4(C)C3CC[C@@]21C (stereo partly shown) [EM-1195-CS] | – | – | – | – | Androgenic Activity Shionogi, Basal ([1]; E^−6): −34; Androgenic Activity Shionogi, Basal ([1]; E^−7): −27; Antiandrogenic Activity Shionogi, DHT ([2]; E^−6): −110; Antiandrogenic Activity Shionogi, DHT ([2]; E^−7): −105 |
| CN(C)C(=O)c1cc2c(cc1O)CCC1C2CCC2(C)C1CCC21CCC(C)(C)C(=O)O1 (stereo not shown) [EM-01661-B] | −13 | 0 | −15 | 3 | – |
| CCC(=O)O[C@]1(C(C)=O)CCC2C3C=C(C)C4=CC(=O)C[C@H](C)[C@]4(C)C3CC[C@@]21C (stereo partly shown) [CS-243] | – | – | – | – | Androgenic Activity Shionogi, Basal ([1]; E^−6): −23; Androgenic Activity Shionogi, Basal ([1]; E^−7): −13; Antiandrogenic Activity Shionogi, DHT ([2]; E^−6): −129; Antiandrogenic Activity Shionogi, DHT ([2]; E^−7): −102; IC50 [2, 5]: 11 nM |
| CC12CCC3c4ccc(F)cc4CCC3C1CCC21CCCC(=O)O1 (stereo not shown) [EM-1170-CS] | −27 | 12 | −38 | 15 | – |
| COc1ccc(CC(=O)O[C@]2(C(C)=O)CCC3C4C=C(C)C5=CC(=O)C=C[C@]5(C)C4CC[C@@]32C)cc1 (stereo partly shown) [EM-1291] | – | – | – | – | Androgenic Activity Shionogi, Basal ([1]; E^−6): −44; Androgenic Activity Shionogi, Basal ([1]; E^−7): −8; Antiandrogenic Activity Shionogi, DHT ([2]; E^−6): −48; Antiandrogenic Activity Shionogi, DHT ([2]; E^−7): −13 |
| COCCOc1cc2c(cc1C(=O)OC)C1CC[C@@]3(C)C(CC[C@@]34CCC(C)(C)C(=O)O4)C1CC2 (stereo partly drawn) [EM-1402-CS, 2-Carbomethoxy-3-(2″-methoxyethyloxy)-1,3,5(10)-estratrien 17(R)-spiro-2′-(5′,5′-dimethyl-6′-oxo)tetrahydropyran] | −9 | 0 | −87 | −13 | – |
| C[C@]12CCC(=O)C=C1C=C[C@@H]1[C@@H]2CC[C@]2(C)C(=O)C3(CC4CC4C3)C[C@@H]12 (stereo partly shown) [EM-1299, 4,6-Androstadien-3,17-dione-16-spirobicyclo[3′.1′.0′]-hexane] | – | – | – | – | Androgenic Activity Shionogi, Basal E^−6 ([1]; E^−6): 10; Androgenic Activity Shionogi, Basal E^−7 ([1]; E^−7): 5; Antiandrogenic Activity Shionogi, DHT E^−6 ([2]; with DHT, E^−6): −27; Antiandrogenic Activity Shionogi, DHT E^−7 ([2]; with DHT, E^−7): 0 |
| COCCOc1cc2c(cc1Cl)C1CCC3(C)C(CCC34CCC(C)(C)C(=O)O4)C1CC2 (stereo not shown) [EM-1371-CS] | 92 | 58 | −76 | 0 | – |
| CC1=C[C@@H]2[C@H](CC[C@]3(C)C(=O)C4(CCCCC4)C[C@@H]23)[C@@]2(C)CCC(=O)C=C12 [EM-925] | – | – | – | – | Androgenic Activity Shionogi, Basal E^−6 ([1]; E^−6): −4; Androgenic Activity Shionogi, Basal E^−7 ([1]; E^−7): 11; Antiandrogenic Activity Shionogi, DHT E^−6 ([2]; with DHT, E^−6): −7; Antiandrogenic Activity Shionogi, DHT E^−7 ([2]; with DHT, E^−7): 15 |
| CC1(C)CCC2(CCC3C4CCc5ccccc5C4CCC32C)OC1=O (stereo not shown) [CS-224] | 0 | 17 | −11 | 23 | – |
| CC1(C)CC[C@@]2(CCC3C4CCc5cc(C(=O)O)ccc5C4CC[C@@]32C)OC1=O (stereo partly drawn) [EM-1401, 3-Carboxy-1,3,5(10)-estratrien-17(R)-spiro-2′-(5′,5′-dimethyl-6′-oxo)tetrahydropyran] | 0 | 2 | – | – | IC50 ([2]; Table 4′, bracketed values, read-out: Antiandrogenic Activity Shionogi, DHT [IC50 (nM)]): > 1000 nM |
| CN(C)CCOc1ccc2c(c1)CCC1C2CCC2(C)C1CCC21CCC(C)(C)C(=O)O1 (stereo not shown) [EM-1389-CS] | −41 | 0 | −103 | −94 | – |
| CCCC(=O)OC1(C(C)=O)CCC2C3C=C(C)C4=CC(=O)CC(C)C4(C)C3CCC21C (stereo not shown) [CS-245] | – | – | – | – | Androgenic Activity Shionogi, Basal ([1]; E^−6): −34; Androgenic Activity Shionogi, Basal ([1]; E^−7): −28; Antiandrogenic Activity Shionogi, DHT ([2]; E^−6): −109; Antiandrogenic Activity Shionogi, DHT ([2]; E^−7): −106; IC50 [2, 5]: 12 nM |
| CCCC(=O)O[C@]1(C)C(=O)CCC2C3C=C(C)C4=CC(=O)CC[C@]4(C)C3CC[C@@]21C (stereo partly shown) [EM-1078] | – | – | – | – | Androgenic Activity Shionogi, Basal E^−6 ([1]; E^−6): 45; Androgenic Activity Shionogi, Basal E^−7 ([1]; E^−7): 5; Antiandrogenic Activity Shionogi, DHT E^−6 ([2]; with DHT, E^−6): −72; Antiandrogenic Activity Shionogi, DHT E^−7 ([2]; with DHT, E^−7): −79 |
| COc1ccc2c(c1)CCC1C2CCC2(C)C1CCC21CCC(C)(C)C(=O)O1 (stereo not shown) [EM-1370] | −11 | 12 | −28 | 0 | – |
| CC(C)C[C@@H]1CC2C3C=CC4=CC(=O)CC[C@]4(C)C3CC[C@]2(C)C1=O (stereo partly shown) [EM-1273-CS] | – | – | – | – | Androgenic Activity Shionogi, Basal E^−6 ([1]; E^−6): −36; Androgenic Activity Shionogi, Basal E^−7 ([1]; E^−7): 12; Antiandrogenic Activity Shionogi, DHT E^−6 ([2]; with DHT, E^−6): −43; Antiandrogenic Activity Shionogi, DHT E^−7 ([2]; with DHT, E^−7): 9 |
